Experimental data taken from ChEMBL document CHEMBL1201862, “PubChem BioAssay data set” (2004).
Activity calls are given as the source filed them. Cut-off read from the data, not from the text of the source, for most assays here: actives have a measured EC50 and inactives only a lower limit.

Columns and labels:
[1] = molecular target: T1, Replicative DNA helicase DnaB (Mycobacterium tuberculosis, UniProt P9WMR3); experiment: DnaB intein splicing inhibitors, dose response, biochemical, cell-free fluorescence (AID 449749); type: functional
T1 sequence (P9WMR3 whole entry): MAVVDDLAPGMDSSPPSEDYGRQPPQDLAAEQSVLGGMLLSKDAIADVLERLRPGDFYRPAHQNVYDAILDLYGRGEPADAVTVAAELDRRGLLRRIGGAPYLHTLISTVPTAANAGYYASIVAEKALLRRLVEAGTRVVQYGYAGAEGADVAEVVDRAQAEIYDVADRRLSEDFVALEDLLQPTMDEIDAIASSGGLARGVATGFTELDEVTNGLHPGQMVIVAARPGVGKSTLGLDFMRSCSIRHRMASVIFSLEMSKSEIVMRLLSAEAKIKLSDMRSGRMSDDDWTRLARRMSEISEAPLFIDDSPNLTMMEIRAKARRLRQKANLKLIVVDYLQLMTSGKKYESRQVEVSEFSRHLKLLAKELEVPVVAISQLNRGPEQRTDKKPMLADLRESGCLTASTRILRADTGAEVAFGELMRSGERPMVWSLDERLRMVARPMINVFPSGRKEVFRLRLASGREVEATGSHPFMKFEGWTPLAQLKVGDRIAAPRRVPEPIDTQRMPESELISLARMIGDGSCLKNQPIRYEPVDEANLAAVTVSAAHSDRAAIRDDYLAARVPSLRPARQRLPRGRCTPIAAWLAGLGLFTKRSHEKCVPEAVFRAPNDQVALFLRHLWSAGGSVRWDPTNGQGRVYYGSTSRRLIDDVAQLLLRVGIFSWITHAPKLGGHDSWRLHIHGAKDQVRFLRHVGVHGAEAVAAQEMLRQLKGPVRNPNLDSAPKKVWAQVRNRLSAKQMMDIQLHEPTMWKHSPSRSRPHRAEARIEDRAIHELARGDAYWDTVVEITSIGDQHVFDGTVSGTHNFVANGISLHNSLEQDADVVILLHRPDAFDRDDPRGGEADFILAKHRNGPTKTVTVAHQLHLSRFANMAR

Protein RecA = molecular target: T2, Protein RecA (Mycobacterium tuberculosis, UniProt P9WHJ3); experiment: Fluorescence Cell-Free Homogeneous Dose Retest to Identify Inhibitors of RecA-Intein Splicing Activity. [Related pubchem assays (depositor defined):AID2097, AID2223, AID489010, AID492950]; type: functional
T2 sequence (P9WHJ3 whole entry): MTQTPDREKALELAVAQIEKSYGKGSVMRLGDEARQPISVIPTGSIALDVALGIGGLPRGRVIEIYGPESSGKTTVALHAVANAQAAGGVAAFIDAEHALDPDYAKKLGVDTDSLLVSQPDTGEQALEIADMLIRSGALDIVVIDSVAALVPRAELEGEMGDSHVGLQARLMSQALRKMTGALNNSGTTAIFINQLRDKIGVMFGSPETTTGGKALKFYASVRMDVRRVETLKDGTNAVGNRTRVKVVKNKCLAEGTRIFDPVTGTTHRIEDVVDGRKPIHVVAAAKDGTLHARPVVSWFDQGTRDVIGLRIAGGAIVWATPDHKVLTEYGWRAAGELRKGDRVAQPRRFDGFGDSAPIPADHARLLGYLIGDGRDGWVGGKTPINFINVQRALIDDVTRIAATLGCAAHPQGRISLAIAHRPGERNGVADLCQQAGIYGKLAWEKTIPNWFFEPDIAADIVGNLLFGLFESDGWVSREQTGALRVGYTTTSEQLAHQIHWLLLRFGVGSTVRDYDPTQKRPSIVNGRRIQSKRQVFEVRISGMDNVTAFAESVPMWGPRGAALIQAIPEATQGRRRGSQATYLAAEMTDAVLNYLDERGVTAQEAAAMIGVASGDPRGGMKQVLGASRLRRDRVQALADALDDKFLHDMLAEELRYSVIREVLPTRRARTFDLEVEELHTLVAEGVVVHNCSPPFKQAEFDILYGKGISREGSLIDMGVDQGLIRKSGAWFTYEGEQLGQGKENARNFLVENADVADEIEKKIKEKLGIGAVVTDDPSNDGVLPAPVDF

[2] = tested on: Streptococcus sp. 'group A'; experiment: Streptococcus pyogenes SK(-)GAS viability under kanamycin – luminescence, BacTiterGlo, confirmation, counter-screen for streptokinase expression inhibitor project, dose response (AID 1900); type: functional, organism-based
Streptococcus = experiment: GAS UMAA2166 growth inhibition – luminescence, BacTiterGlo, counter-screen for streptokinase expression inhibitor project, dose response (AID 1915); type: functional, organism-based;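 note: potency for reduction of bacterial viability or growth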
Streptokinase A = molecular target: T3, Streptokinase A (Streptococcus pyogenes serotype M1, UniProt P10520); experiment: viability-normalized secreted streptokinase activity reduction – plasminogen activation absorbance, OD405, dose response (AID 1914); type: functional, Streptococcus pyogenes M1 GAS;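 note: secreted streptokinase activity via plasminogen activation per viability signal from cell pellet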
T3 sequence (P10520 whole entry): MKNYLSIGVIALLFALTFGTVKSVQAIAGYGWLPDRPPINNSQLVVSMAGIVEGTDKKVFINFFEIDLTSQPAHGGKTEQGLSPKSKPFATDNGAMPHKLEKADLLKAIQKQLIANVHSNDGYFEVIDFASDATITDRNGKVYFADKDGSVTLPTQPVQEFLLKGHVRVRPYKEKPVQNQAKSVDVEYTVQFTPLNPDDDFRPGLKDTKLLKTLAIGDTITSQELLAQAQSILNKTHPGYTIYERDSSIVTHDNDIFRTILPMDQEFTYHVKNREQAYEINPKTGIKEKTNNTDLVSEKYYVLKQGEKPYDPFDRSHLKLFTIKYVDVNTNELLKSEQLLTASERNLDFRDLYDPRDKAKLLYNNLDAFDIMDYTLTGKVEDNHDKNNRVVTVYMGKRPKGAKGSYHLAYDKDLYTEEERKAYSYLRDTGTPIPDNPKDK

[3] = NIH3T3 cell viability loss – ATP luminescence, mouse fibroblasts, counter-screen, dose response (AID 2010); type: functional, cell-based;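 note: cells exposed to compound for about 90 hours before reading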
[4] = Trypanosoma cruzi growth suppression in host cells – NIH3T3 host cells, beta-gal luminescence, confirmation (AID 2044); type: functional, cell-based;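 note: intracellular parasites grown in NIH/3T3 mouse fibroblasts as host cells; luminescent beta-galactosidase reporter signal from transgenic T. cruzi replicating inside host cells; inhibitors lower the luminescence signal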
[5] = molecular target: T4, Corticotropin-releasing factor receptor 2/Corticotropin-releasing factor-binding protein (Homo sapiens, UniProt P24387+Q13324); experiment: activators of CRF receptor 2 with binding protein – uHTS hits, confirmation (AID 602473); type: functional; settings: read-out: EC50_Mean
T4 sequence (Q13324 whole entry): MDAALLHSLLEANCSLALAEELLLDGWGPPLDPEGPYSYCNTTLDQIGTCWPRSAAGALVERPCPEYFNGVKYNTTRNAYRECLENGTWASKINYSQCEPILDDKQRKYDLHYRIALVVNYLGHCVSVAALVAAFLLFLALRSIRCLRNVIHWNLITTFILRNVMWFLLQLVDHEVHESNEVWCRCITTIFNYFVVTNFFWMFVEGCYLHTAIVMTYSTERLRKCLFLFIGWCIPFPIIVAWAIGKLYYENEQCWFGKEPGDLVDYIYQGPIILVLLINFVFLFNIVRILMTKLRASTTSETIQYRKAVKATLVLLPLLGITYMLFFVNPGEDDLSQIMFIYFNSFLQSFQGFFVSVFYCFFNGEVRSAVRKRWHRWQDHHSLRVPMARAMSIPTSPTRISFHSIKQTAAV
T4 sequence (P24387 whole entry): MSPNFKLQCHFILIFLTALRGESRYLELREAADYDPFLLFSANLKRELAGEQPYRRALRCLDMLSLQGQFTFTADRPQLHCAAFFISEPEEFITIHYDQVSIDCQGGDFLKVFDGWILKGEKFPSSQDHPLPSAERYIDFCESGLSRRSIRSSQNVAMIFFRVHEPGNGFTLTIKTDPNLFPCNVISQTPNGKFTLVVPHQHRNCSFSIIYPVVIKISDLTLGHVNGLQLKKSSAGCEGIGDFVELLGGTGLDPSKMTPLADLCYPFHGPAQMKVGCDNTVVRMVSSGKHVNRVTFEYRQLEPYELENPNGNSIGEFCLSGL

| SMILES | EC50 [2] | EC50 (Streptococcus) | EC50 (Streptokinase A) | also measured |
| --- | --- | --- | --- | --- |
| CC(=O)N(c1ccccc1)C(C)c1nc(C#N)c(C#N)nc1C (stereo unspecified) |  |  |  | AC50 [1]: 24.5 µM (active); EC50 (Protein RecA): 4.35 µM (active) |
| Cc1ccc(CNC(=O)c2ccc(N(C)S(=O)(=O)c3ccccc3)cc2)cc1 |  |  |  | AC50 [1]: 53.4 µM (active); EC50 (Protein RecA): > 380 µM (inactive) |
| CC(=O)Oc1ccc(/C=N/NS(=O)(=O)c2ccccc2)cc1 | > 150 µM (not active) | > 150 µM (not active) | > 150 µM (not active) |  |
| FC(F)(F)c1cccc(Nc2nc(N3CCCC3)nc(N3CCCC3)n2)c1 | 4.06 µM (active) | 9.85 µM (active) | 17.5 µM (inconclusive) |  |
| O=C(CSC(=S)N1CCCCC1)Nc1nc(-c2ccccc2)c(-c2ccccc2)o1 | 1.51 µM (active) | > 150 µM (not active) | > 150 µM (not active) |  |
| CC(C)(C)c1ccccc1OCCCCCn1ccnc1 | 19.1 µM (active) | > 150 µM (not active) | > 150 µM (not active) | EC50 [3]: > 60 µM (not active); EC50 [4]: 1.32 µM (active) |
| CC(=O)Oc1ccc2c(=O)oc(-c3ccccc3C)nc2c1 |  |  |  | AC50 [1]: > 380 µM (inactive); EC50 (Protein RecA): 37.8 µM (active) |
| Cc1ccc(C(=O)Nc2nnc(S(=O)(=O)N3CCN(c4ccc(F)cc4)CC3)s2)cc1 |  | 109 µM (active) | > 150 µM (not active) |  |
| O=C(Oc1ccc2ccccc2c1)c1ccco1 |  |  |  | AC50 [1]: 18.3 µM (active); EC50 (Protein RecA): 13.9 µM (active) |
| O=C(NC(=S)Nc1ccc(Cl)c(C(=O)O)c1)c1cccc(COc2ccccc2)c1 | 13 µM (active) | > 150 µM (not active) | > 150 µM (not active) |  |
| CCCc1[nH][nH]c(=O)c1C(c1ccccc1)C(C#N)C#N (stereo unspecified) |  |  |  | AC50 [1]: 8.91 µM (active); EC50 (Protein RecA): 4.19 µM (active) |
| CCCCCCCCCCC(=O)NNC(=O)c1c(O)c2ccccc2n(CC)c1=O | 0.337 µM (active) | 4.38 µM (active) | > 150 µM (not active) |  |
| Cc1ccsc1C(=O)N(c1nc2ccccc2s1)c1c(C)cccc1C | 16.7 µM (active) | > 150 µM (not active) | 7.09 µM (inconclusive) |  |
| O=C(COc1cccc(Cl)c1)Nc1ccccc1N1CCCCC1 | 21.1 µM (active) | > 150 µM (not active) | 11.1 µM (active) |  |
| COc1ccc(-c2coc3c(C)c4oc(=O)c(CCC(=O)O)c(C)c4cc23)cc1 | 3.74 µM (active) | 15.4 µM (active) | > 150 µM (not active) |  |
| Cc1nc2c(C)cccn2c(=O)c1NC(=O)c1ccc2c(c1)OCO2 | > 150 µM (not active) | > 150 µM (not active) | > 150 µM (not active) |  |

| SMILES | EC50 [2] | EC50 (Streptococcus) | EC50 (Streptokinase A) | also measured |
| --- | --- | --- | --- | --- |
| CCOC(=O)c1cnc(-n2nc(C)cc2C)nc1N(CC)CC | 25.3 µM (active) | > 150 µM (not active) | > 150 µM (not active) |  |
| C/C(=N\NC(=O)c1ccc(Cl)c(Cl)c1)c1ccc(Br)s1 | 2.12 µM (active) | 14.7 µM (active) | > 150 µM (not active) | EC50 [3]: 8.11 µM (active); EC50 [4]: 0.597 µM (active) |
| Cc1nn(C)c(C(=O)N/N=C/c2cccc(Oc3ccccc3)c2)c1Br |  |  |  | EC50 [5]: > 53 µM (inactive) |
| CC1(c2ccc(OC(F)F)cc2)NC(=O)N(CC(=O)Nc2ccc3c(c2)OCO3)C1=O (stereo unspecified) |  |  |  | EC50 [5]: 5.24 µM (active) |
| CCCn1c(NC(=O)C23CC4CC(CC(O)(C4)C2)C3)nc2ccccc21 |  | > 150 µM (not active) | > 150 µM (not active) |  |
| O=C(c1ccc(S(=O)(=O)Nc2ccccc2)cc1)N1CCCC(C(F)(F)F)C1 (stereo unspecified) |  |  |  | EC50 [5]: 10.5 µM (active) |
| Cc1ccc2c(c1)C(=O)CC1(CCC(C(C)(C)C)CC1)O2 (stereo unspecified) | 9.31 µM (active) | 14.2 µM (active) | 12.6 µM (active) |  |
| Cc1cc(Br)c(OCc2ccc(C(=O)N/N=C3\CC4CC=CC34)cc2)c(Br)c1 (stereo unspecified) | 4.08 µM (active) | 44.5 µM (active) | > 150 µM (not active) |  |
| CCOc1ccc2c(c1)c1nnc(SCC(=O)N3CCC(C)CC3)nc1n2C | 24.2 µM (active) | > 150 µM (not active) | > 150 µM (not active) |  |
| COc1ccc(CN(C2CCCCC2C)S(=O)(=O)c2ccc(S(=O)(=O)N(C)C)cc2)cc1OC (stereo unspecified) |  |  |  | EC50 [5]: 5.42 µM (active) |
| CC(=N)/C(C#N)=C(/O)CSc1nc2cc(Cl)ccc2c(=O)n1Cc1ccco1 | 11.8 µM (active) | 16.2 µM (active) | > 150 µM (not active) | EC50 [3]: > 60 µM (inconclusive); EC50 [4]: 3.43 µM (active) |
| COc1ccc(C(=O)Cn2cnc3ccccc3c2=O)c(OC)c1 |  |  |  | EC50 [5]: > 53 µM (inactive) |
| CCOC(=O)c1ccc(CNC(=O)Cn2nnc(-c3ccccc3)n2)o1 |  |  |  | EC50 [5]: > 53 µM (inactive) |
| Cc1ccc(S(=O)(=O)N2CCN(c3ncnc4scc(-c5ccccc5)c34)CC2)cc1 |  |  |  | EC50 [5]: 2.65 µM (active) |
| CCN=C(S)N(CCc1ccc(S(N)(=O)=O)cc1)C1CC(=O)N(c2ccccc2)C1=O (stereo unspecified) |  |  |  | EC50 [5]: 18.5 µM (active) |
